Results: patent publication US6114334A, “Piperazine derivatives as therapeutic agents” (Knoll Aktiengesellschaft, priority 1995, dated 2000)

Assays:
5-HT1A receptors = target: T1, 5-HT1A receptors (Rattus norvegicus, UniProt P19327); assay: inhibition of [3H]8-OH-DPAT binding to 5-HT1A receptors in vitro; parameters: species or system rat (male Sprague-Dawley, hippocampal tissue); details: rat hippocampus, [3H]8-OH-DPAT 2 nM, 25° C., 30 min
T1 sequence (P19327 1-422): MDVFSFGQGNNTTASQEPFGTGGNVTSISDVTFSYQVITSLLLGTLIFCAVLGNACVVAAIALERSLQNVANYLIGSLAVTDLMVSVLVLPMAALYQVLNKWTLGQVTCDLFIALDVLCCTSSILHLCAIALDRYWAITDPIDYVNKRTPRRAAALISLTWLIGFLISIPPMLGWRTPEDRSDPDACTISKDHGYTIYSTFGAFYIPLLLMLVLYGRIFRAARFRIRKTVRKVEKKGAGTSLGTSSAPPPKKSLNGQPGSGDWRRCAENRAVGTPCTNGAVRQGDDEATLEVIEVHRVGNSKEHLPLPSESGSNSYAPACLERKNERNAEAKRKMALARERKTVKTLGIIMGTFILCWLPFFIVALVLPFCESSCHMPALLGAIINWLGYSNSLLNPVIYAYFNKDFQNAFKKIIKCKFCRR
Description: Hippocampal tissue from the brains of male Sprague-Dawley rats (Charles River; weight range 150-250 g) was homogenised in ice-cold 50 mM Tris-HCl buffer (pH 7.7 when measured at 25° C., 1:40 w/v) and centrifuged at 30,000 g at 4° C. for 10 minutes. The pellet was rehomogenised in the same buffer, incubated at 37° C. for 10 minutes and centrifuged at 30,000 g at 4° C. for 10 minutes. The final pellet was resuspended in 50 mM Tris-HCl buffer (pH 7.7) containing 4 mM CaCl2. 0.1% L-ascorbic acid and 10 μM pargyline hydrochloride (equivalent to 6.25 mg wet weight of tissue/ml) and used immediately in the binding assay. Aliquots (400 μl; equivalent to 2.5 mg wet weight of tissue/tube) of this suspension were added to tubes containing the ligand (50 μl; 2 nM) and distilled water (50 μl; total binding) or 5-HT (50 μl; 10 μM; non-specific binding) or test compound (50 μl; at a single concentration of 10^-6 M or at 10 concentrations ranging from 10^-11 -10^-3 M). The ligand was [^3 H]8-hydroxy-2-(dipropylamino)tetralin ([^3 H]8-OH-DPAT) and the mixture was incubated at 25° C. for 30 minutes before the incubation was terminated by rapid filtration.
The filters were washed with ice-cold Tris-HCl buffer and dried. The filters were punched out into vials, scintillation fluid added and radioactivity determined by liquid scintillation counting. The percentage displacement of specific binding of the tritiated ligand was calculated for the single concentration (10^-6 M) of test compound. Displacement curves were then produced for those compounds which displaced ≥50% of specific binding of the tritiated ligand at 10^-6 M using a range of concentrations of the compound. The concentration which gave 50% inhibition of specific binding (IC50) was obtained from the curve. The inhibition coefficient Ki was then calculated using the formula [formula] in which [ligand] is the concentration of the tritiated ligand used and KD is the equilibrium dissociation constant for the ligand.

α1-adrenoceptors = assay: inhibition of 7-methoxy-[3H]prazosin binding to α1-adrenoceptors in vitro; parameters: species or system rat (male Charles River CD, whole cortical tissue); details: rat whole cortex, 7-methoxy-[3H]prazosin 0.1 nM, 30° C., 30 min
Method in brief: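 Male CD rat cortical membranes in 50 mM Tris-HCl pH 7.6 were incubated 30 min at 30 °C with 7-methoxy-[3H]prazosin (0.1 nM as added), with 5 μM phentolamine (as added) defining non-specific binding, then filtered and counted. Compounds were tested at 10^-6 M for % displacement or at 10^-11–10^-3 M for IC50, and Ki was derived from IC50, ligand concentration and KD.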

α2A-adrenoceptors = target: T2, α2A-adrenoceptors (Homo sapiens, UniProt P08913); assay: inhibition of tritiated RX 821002 binding to α2A-adrenoceptors in vitro; parameters: species or system human (cerebral cortex post-mortem); details: 10^-6 M, human cerebral cortex, [3H]RX 821002; read-out: % displacement at 10^-6 M, α2A
T2 construct: Human cerebral cortex obtained at post-mortem; from tissue; host or cells: human cerebral cortex, post-mortem
T2 sequence (P08913 1-465): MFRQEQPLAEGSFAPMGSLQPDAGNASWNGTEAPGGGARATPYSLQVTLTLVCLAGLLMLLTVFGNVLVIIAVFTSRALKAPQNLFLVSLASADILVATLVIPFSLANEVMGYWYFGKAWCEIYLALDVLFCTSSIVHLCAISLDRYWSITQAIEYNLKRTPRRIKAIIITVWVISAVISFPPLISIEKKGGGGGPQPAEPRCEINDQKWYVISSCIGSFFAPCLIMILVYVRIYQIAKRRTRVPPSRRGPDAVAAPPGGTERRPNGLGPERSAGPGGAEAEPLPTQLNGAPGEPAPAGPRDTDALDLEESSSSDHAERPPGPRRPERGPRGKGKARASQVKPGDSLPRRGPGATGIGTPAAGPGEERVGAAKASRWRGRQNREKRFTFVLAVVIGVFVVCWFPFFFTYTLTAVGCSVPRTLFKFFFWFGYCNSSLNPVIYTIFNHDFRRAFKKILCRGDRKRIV
Method in brief: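 Post-mortem human cerebral cortex membranes (10 mg wet tissue/tube; 50 mM Tris-HCl pH 7.5, ascorbate, EDTA) incubated 75 min at 0 °C with [3H]RX 821002 (0.2 nM as added) and compound; filtration, scintillation counting. Compounds displacing ≥50% at 10^-6 M tested at 10^-11–10^-3 M; IC50 converted to Ki.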

D2 dopamine receptors = D2 dopamine receptors (Rattus norvegicus, UniProt P61169); assay: inhibition of tritiated (S)-sulpiride binding to D2 dopamine receptors in vitro; parameters: species or system rat (male Charles River CD, striatal tissue); details: rat striatum, tritiated (S)-sulpiride 1 nM, 4° C., 40 min
Chain of D2 dopamine receptors (P61169 whole entry): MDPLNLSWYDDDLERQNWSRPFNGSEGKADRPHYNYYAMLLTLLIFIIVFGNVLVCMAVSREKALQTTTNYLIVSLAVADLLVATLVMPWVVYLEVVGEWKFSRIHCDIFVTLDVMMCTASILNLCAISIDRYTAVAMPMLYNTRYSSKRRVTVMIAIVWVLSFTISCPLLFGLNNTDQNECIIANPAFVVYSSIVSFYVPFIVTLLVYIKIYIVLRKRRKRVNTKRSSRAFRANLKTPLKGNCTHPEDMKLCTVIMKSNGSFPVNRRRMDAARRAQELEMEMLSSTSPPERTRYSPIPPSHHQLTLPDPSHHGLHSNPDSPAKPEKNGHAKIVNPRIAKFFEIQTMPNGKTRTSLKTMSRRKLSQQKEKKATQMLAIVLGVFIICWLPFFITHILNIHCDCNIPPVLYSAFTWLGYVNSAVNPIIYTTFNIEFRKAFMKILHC

α2D-adrenoceptors = target: T3, α2D-adrenoceptors (Rattus norvegicus, UniProt P22909); assay: inhibition of tritiated idazoxan binding to α2D-adrenoceptors in vitro; parameters: species or system rat (male Charles River CD, frontal cortical tissue); details: rat frontal cortex, [3H]idazoxan 1 nM, 0° C., 75 min
T3 sequence (P22909 1-465): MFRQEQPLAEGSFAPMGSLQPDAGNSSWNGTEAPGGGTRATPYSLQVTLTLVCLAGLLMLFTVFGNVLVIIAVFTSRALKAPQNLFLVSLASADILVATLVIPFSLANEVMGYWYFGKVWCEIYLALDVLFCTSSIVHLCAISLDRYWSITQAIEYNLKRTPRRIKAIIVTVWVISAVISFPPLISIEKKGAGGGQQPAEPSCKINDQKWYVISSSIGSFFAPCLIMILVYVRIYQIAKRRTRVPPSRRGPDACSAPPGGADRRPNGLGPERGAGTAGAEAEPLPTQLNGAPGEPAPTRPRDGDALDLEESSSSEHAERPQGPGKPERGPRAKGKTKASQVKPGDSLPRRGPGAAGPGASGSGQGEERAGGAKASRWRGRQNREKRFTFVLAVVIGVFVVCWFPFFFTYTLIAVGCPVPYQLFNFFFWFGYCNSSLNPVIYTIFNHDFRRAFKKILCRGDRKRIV

Ki (5-HT1A receptors): 0.213 µM
Ki (α1-adrenoceptors): > 0.5 µM
inhibition at 1 µM (α2A-adrenoceptors): 84%
Ki (D2 dopamine receptors): > 0.5 µM
Ki (α2D-adrenoceptors): 0.226 µM
SMILES: CC1(CN2CCN(c3cccc(Cl)c3)CC2)N=C(c2ccccc2)NC1=O (centres unmarked) [Example 42, 4-[4-(3-Chlorophenyl)piperazin-1-ylmethyl]-4-methyl-2-phenyl-2-imidazolin-5-one]
